Measurements published in PubChem BioAssay (NCI).
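Five concentrations, 48 hours, 96-well plates. GI50 marks 50% less growth. TGI denotes the concentration required for complete inhibition of growth.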

Key:
Assay in all cases: NCI anticancer screen, dose series, 48 h
HCC-2998 colon = tested on: HCC-2998 colon
NCI/ADR-RES ovarian = tested on: NCI/ADR-RES ovarian
OVCAR-3 ovarian = tested on: OVCAR-3 ovarian
OVCAR-5 ovarian = tested on: OVCAR-5 ovarian
RPMI-8226 leukemia = tested on: RPMI-8226 leukemia
UACC-257 melanoma = tested on: UACC-257 melanoma
M14 melanoma = tested on: M14 melanoma
UO-31 renal = tested on: UO-31 renal

| SMILES | TGI (HCC-2998 colon) [µM] | TGI (NCI/ADR-RES ovarian) [µM] | TGI (OVCAR-3 ovarian) [µM] | TGI (OVCAR-5 ovarian) [µM] | TGI (RPMI-8226 leukemia) [µM] | TGI (UACC-257 melanoma) [µM] | TGI (M14 melanoma) [µM] | TGI (UO-31 renal) [µM] | GI50 (HCC-2998 colon) [µM] | GI50 (M14 melanoma) [µM] | GI50 (NCI/ADR-RES ovarian) [µM] | GI50 (OVCAR-3 ovarian) [µM] | GI50 (OVCAR-5 ovarian) [µM] | GI50 (RPMI-8226 leukemia) [µM] | GI50 (UACC-257 melanoma) [µM] | GI50 (UO-31 renal) [µM] |
| --- | --- | --- | --- | --- | --- | --- | --- | --- | --- | --- | --- | --- | --- | --- | --- | --- |
| OC(CC(O)(C(F)(F)Cl)C(F)(F)Cl)c1ccccc1 (stereo unspecified) | > 10 | > 10 | > 10 | > 10 | > 10 | > 10 |  |  |  |  |  |  |  |  |  |  |
| CCn1ncc2c(=O)n3ncn(-c4ccc(Br)cc4)c3nc21 | > 100 | > 100 | > 100 | > 100 | > 100 | > 100 | > 100 | > 100 |  |  |  |  |  |  |  |  |
| CC/C=N\N1C(N)=C(C#N)C(C#N)(C#N)C1CC (stereo unspecified) | > 100 | > 100 | > 100 | > 100 | > 100 | > 100 | > 100 | > 100 |  |  |  |  |  |  |  |  |
| CO[P@@]1(=O)O[C@@H](c2ccccc2)[C@H](O)[C@]1(O)c1ccccc1 |  | > 100 | > 100 |  | > 100 | > 100 | > 100 | > 100 |  |  |  |  |  |  |  |  |
| N#Cc1c(-c2ccc([N+](=O)[O-])cc2)c(C#N)c(=O)n(NS(=O)(=O)c2ccccc2)c1O | > 100 | > 100 | > 100 | > 100 | > 100 | > 100 | > 100 |  |  |  |  |  |  |  |  |  |
| CN(C)CCNCCCNc1c2ccccc2nc2cccc([N+](=O)[O-])c12 | < 0.0184 |  | 0.0466 | 0.0543 | < 0.0226 | 0.525 | 0.0654 | 0.26 |  |  |  |  |  |  |  |  |
| CC(C)=CCC[C@@H](C)C1=C(Nc2ccccc2F)C(O)=C(C)C(=O)C1=O | 38.1 | > 23.8 | > 100 | > 100 | > 100 | > 100 | > 100 | 25.2 |  |  |  |  |  |  |  |  |
| Cc1cc(S(=O)(=O)N=C2Nc3cccc4cccc(c34)N2)c(S)cc1Cl | > 100 | > 100 | > 100 | > 100 | > 100 | > 100 | > 100 | > 100 |  |  |  |  |  |  |  |  |
| CCOC(=O)c1c(-c2ccccc2)c(OC)cn1C | > 10 | > 10 | > 10 | > 10 | > 10 | > 10 | > 10 |  |  |  |  |  |  |  |  |  |
| CC(=O)/C(=N\Nc1ccc(Cl)cc1)C(C)=Nc1ccc(C)cc1 |  | > 100 | 84.5 | > 100 | > 100 | > 100 | 58 | > 100 |  |  |  |  |  |  |  |  |
| NC(=O)NN=C1Cc2ccccc2C1 | > 100 | > 100 | > 100 | > 100 | > 100 | > 100 | > 100 | > 100 |  |  |  |  |  |  |  |  |
| O=C1CSC(c2c[nH]c3ccccc23)N1c1ccc(Cl)cc1Cl (stereo unspecified) | > 100 | > 100 | > 100 | > 100 | > 100 | > 100 | > 100 | > 100 |  |  |  |  |  |  |  |  |
| O=C1c2cc3c(cc2-c2c1c1ccc(Cl)cc1c(=O)n2CCCn1ccnc1)OCO3 | > 100 | 15.2 | 1.4 | 49 | 0.546 | > 100 | 11.9 | > 100 | 0.0737 | < 0.01 | < 0.01 | 0.0396 | 0.0448 | 0.0215 | 0.0584 | < 0.01 |
| CCc1nc2c(c(N(C)C)c1C(=O)OC)CCc1ccccc1-2 | 67.5 | > 100 | 35.4 | > 100 | 46.6 | 68.9 | 74.2 | > 100 |  |  |  |  |  |  |  |  |
| CC1=C(C)SC(=C2Sc3c(n(C)c(=O)n(C)c3=O)S2)S1 | > 100 | > 100 | > 100 | > 100 | > 100 | > 100 | > 100 | > 100 |  |  |  |  |  |  |  |  |
| COc1ccc(C2c3cc4c(cc3OC(Nc3ccccc3)C2C)OCO4)cc1 (stereo unspecified) | > 100 |  | > 100 | > 100 | > 100 | > 100 | > 100 | > 100 |  |  |  |  |  |  |  |  |
| CC1(C)C=C(/C=C2/N(S(=O)(=O)C(F)(F)F)C(/C=C3/N(S(=O)(=O)C(F)(F)F)C(C)(C#N)CC3(C)C)=CC2(C)C)N=C1/C=C1/CC(C)(C)C(=O)N1 (stereo unspecified) | > 100 | > 100 | > 100 | > 100 | 23.4 | > 100 | > 100 | > 100 |  |  |  |  |  |  |  |  |
| Cc1cc(-c2cc(C(C)(C)C)c(O)c(C(C)(C)C)c2)c(C)cc1-c1cc(C(C)(C)C)c(O)c(C(C)(C)C)c1 |  | > 100 | > 100 | > 100 | > 100 | > 100 | > 100 | > 100 |  |  |  |  |  |  |  |  |
| CC(=O)Oc1ccn2nc(C)c(Br)c2c1 | > 100 | > 100 | > 100 | > 100 |  | 99.5 | > 100 |  |  |  |  |  |  |  |  |  |
| NC(=O)C1CCN(Cc2c(Cl)c(Cl)c(CN3CCC(C(N)=O)CC3)c(Cl)c2Cl)CC1 | > 100 | > 100 | > 100 | > 100 | > 100 | > 100 | > 100 | > 100 |  |  |  |  |  |  |  |  |
| COC1(CC[C@H](C)COC2OC(CO)C(O)C(O)C2O)O[C@H]2C[C@H]3[C@@H]4CC=C5C[C@@H](OC6OC(CO)C(OC7OC(C)C(O)C(O)C7O)C(O)C6OC6OC(C)C(O)C(O)C6O)CC[C@]5(C)[C@H]4CC[C@]3(C)[C@H]2[C@@H]1C (stereo partly specified) | > 27.9 | 11.1 | 17.6 | > 35.5 | 5.93 | 28.7 |  | 6.79 |  |  |  |  |  |  |  |  |
| O=C(c1ccc([N+](=O)[O-])cc1)N1CCCC1 | > 100 | > 100 | > 100 | > 100 | > 100 | > 100 | > 100 | > 100 |  |  |  |  |  |  |  |  |
| CSc1ncc2c(n1)-c1ccccc1OC2NC1CC1 (stereo unspecified) |  | > 100 | > 100 | > 100 | 96.9 | > 100 | > 100 | > 100 |  |  |  |  |  |  |  |  |
| CCOC(=O)/C=C/CCC(C)(C)COC(C)=O | > 10 | > 10 | > 10 | > 10 | > 10 | > 10 | > 10 | > 10 |  |  |  |  |  |  |  |  |
